Source: US10988459B2 (priority 2015, dated 2021)

target: human RIP1 kinase domain (2-375) (Homo sapiens (Human), UniProt Q13546); assay: biochemical; assay type: biochemical; settings: Table 1; apparent Ki (Morrison tight-binding fit); 50 nM RIP1 kinase domain, 50 uM ATP, 2 hours incubation; read-out: RIP1 Ki
How it was run: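 50 nM purified kinase domain from baculovirus-infected insect cells, incubated 2 h with compound in 50 mM Hepes pH 7.5, 30 mM MgCl2, 1 mM DTT, 50 uM ATP, 0.002% Brij-35, 0.5% DMSO. ADP formation read by Transcreener FP at 633 nm excitation. Ki^app fitted with the Morrison tight-binding equation.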

Chain of human RIP1 kinase domain (2-375) (Q13546 2-375): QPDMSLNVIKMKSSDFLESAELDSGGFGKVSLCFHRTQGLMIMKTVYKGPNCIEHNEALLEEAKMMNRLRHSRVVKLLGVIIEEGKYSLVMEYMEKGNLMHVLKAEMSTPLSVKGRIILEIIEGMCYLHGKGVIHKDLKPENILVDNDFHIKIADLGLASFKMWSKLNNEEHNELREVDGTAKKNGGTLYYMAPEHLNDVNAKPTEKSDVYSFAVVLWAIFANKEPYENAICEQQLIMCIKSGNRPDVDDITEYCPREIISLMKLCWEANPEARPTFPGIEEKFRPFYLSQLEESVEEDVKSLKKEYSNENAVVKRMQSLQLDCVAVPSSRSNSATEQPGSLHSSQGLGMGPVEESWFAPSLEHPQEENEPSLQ

| SMILES | Ki [nM] |
| --- | --- |
| CN1C(=O)[C@@H](NC(=O)c2nnc(Cc3ccccc3)[nH]2)CCn2nc(C(F)(F)F)cc21 [Example 80, (S)-5-benzyl-N-(4-methyl-5-oxo-2-(trifluoromethyl)-5,6,7,8-tetrahydro-4H-pyrazolo[1,5-a][1,3]diazepin-6-yl)-4H-1,2,4-triazole-3-carboxamide] | 64 |
| CN1C(=O)[C@@H](NC(=O)c2nnc3ccc(C(F)(F)F)nn23)COc2ccccc21 [Example 81, (S)-N-(5-methyl-4-oxo-2,3,4,5-tetrahydrobenzo[b][1,4]oxazepin-3-yl)-6-(trifluoromethyl)-[1,2,4]triazolo[4,3-b]pyridazine-3-carboxamide] | 567 |
| CN1C(=O)[C@@H](NC(=O)c2nnc3ccc(C(F)(F)F)cn23)COc2ccccc21 [Example 82, (S)-N-(5-methyl-4-oxo-2,3,4,5-tetrahydrobenzo[b][1,4]oxazepin-3-yl)-6-(trifluoromethyl)-[1,2,4]triazolo[4,3-a]pyridine-3-carboxamide] | 393 |

same assay, conditions: human RIP1 kinase domain (2-375), 50 uM ATP, 2 hours incubation, Transcreener ADP assay; read-out: RIP1 Ki

| SMILES | Ki [nM] |
| --- | --- |
| CN1C(=O)[C@@H](NC(=O)c2n[nH]c3ccc(C#N)cc23)COc2ccccc21 [Example 83, (S)-5-cyano-N-(5-methyl-4-oxo-2,3,4,5-tetrahydrobenzo[b][1,4]oxazepin-3-yl)-1H-indazole-3-carboxamide] | 167 |
| CN1C(=O)[C@@H](NC(=O)c2nnc3ccc(C4CC4)cn23)COc2ccccc21 [Example 84, (S)-6-cyclopropyl-N-(5-methyl-4-oxo-2,3,4,5-tetrahydrobenzo[b][1,4]oxazepin-3-yl)-[1,2,4]triazolo[4,3-a]pyridine-3-carboxamide] | 1400 |
| CN1C(=O)C(NC(=O)c2ncn(Cc3ccccc3)n2)CCn2nc(C(F)(F)F)cc21 (stereo not shown) [Example 85, 1-benzyl-N-(4-methyl-5-oxo-2-(trifluoromethyl)-5,6,7,8-tetrahydro-4H-pyrazolo[1,5-a][1,3]diazepin-6-yl)-1H-1,2,4-triazole-3-carboxamide] | 76.8 |
| Cc1cc(F)c2c(c1)OC[C@H](NC(=O)c1n[nH]c3c1C[C@@H](C(F)(F)F)CC3)C(=O)N2 [Example 88, (S)—N—((S)-6-fluoro-8-methyl-4-oxo-2,3,4,5-tetrahydrobenzo[b][1,4]oxazepin-3-yl)-5-(trifluoromethyl)-4,5,6,7-tetrahydro-1H-indazole-3-carboxamide] | 16.7 |
| Cc1cc(F)c2c(c1)OC[C@H](NC(=O)c1n[nH]c3c1C[C@H](C(F)(F)F)CC3)C(=O)N2 [Example 89, (R)—N—((S)-6-fluoro-8-methyl-4-oxo-2,3,4,5-tetrahydrobenzo[b][1,4]oxazepin-3-yl)-5-(trifluoromethyl)-4,5,6,7-tetrahydro-1H-indazole-3-carboxamide] | 55.4 |
| Cc1ccc2snc(C(=O)N[C@H]3COc4ccccc4N(C)C3=O)c2c1 [Example 90, (S)-5-methyl-N-(5-methyl-4-oxo-2,3,4,5-tetrahydrobenzo[b][1,4]oxazepin-3-yl)benzo[d]isothiazole-3-carboxamide] | 18.6 |
| CN1C(=O)[C@@H](NC(=O)c2ncn(Cc3ccccc3)n2)CCn2nc(C(F)(F)F)cc21 [Example 91, (S)-1-benzyl-N-(4-methyl-5-oxo-2-(trifluoromethyl)-5,6,7,8-tetrahydro-4H-pyrazolo[1,5-a][1,3]diazepin-6-yl)-1H-1,2,4-triazole-3-carboxamide] | 27.1 |
| CN1C(=O)[C@@H](NC(=O)c2n[nH]c3ccc(C4CC4)cc23)COc2ccccc21 [Example 92, (S)-5-cyclopropyl-N-(5-methyl-4-oxo-2,3,4,5-tetrahydrobenzo[b][1,4]oxazepin-3-yl)-1H-indazole-3-carboxamide] | 12.9 |
| CN1C(=O)C(NC(=O)c2nnc(Cc3ccccc3)[nH]2)CCCn2nccc21 (stereo not shown) [Example 93, 5-benzyl-N-(4-methyl-5-oxo-4,5,6,7,8,9-hexahydropyrazolo[1,5-a][1,3]diazocin-6-yl)-4H-1,2,4-triazole-3-carboxamide] | 381 |
| CN1C(=O)C(NC(=O)c2ncn(Cc3ccccc3)n2)CCCn2nccc21 (stereo not shown) [Example 94, 1-benzyl-N-(4-methyl-5-oxo-4,5,6,7,8,9-hexahydropyrazolo[1,5-a][1,3]diazocin-6-yl)-1H-1,2,4-triazole-3-carboxamide] | 92.5 |
| CC(c1ccccc1)c1nnc(C(=O)NC2CCCn3nccc3N(C)C2=O)[nH]1 (stereo not shown) [Example 95, N-(4-methyl-5-oxo-4,5,6,7,8,9-hexahydropyrazolo[1,5-a][1,3]diazocin-6-yl)-5-(1-phenylethyl)-4H-1,2,4-triazole-3-carboxamide] | 4300 |
| CN1C(=O)C(NC(=O)c2nnc(Cc3ccc(F)cc3)[nH]2)CCCn2nccc21 (stereo not shown) [Example 96, 5-(4-fluorobenzyl)-N-(4-methyl-5-oxo-4,5,6,7,8,9-hexahydropyrazolo[1,5-a][1,3]diazocin-6-yl)-4H-1,2,4-triazole-3-carboxamide] | 801 |
| CN1C(=O)C(NC(=O)c2nnc(Cc3cccc(F)c3F)[nH]2)CCCn2nccc21 (stereo not shown) [Example 97, 5-(2,3-difluorobenzyl)-N-(4-methyl-5-oxo-4,5,6,7,8,9-hexahydropyrazolo[1,5-a][1,3]diazocin-6-yl)-4H-1,2,4-triazole-3-carboxamide] | 215 |
| CN1C(=O)[C@@H](NC(=O)c2nnc(Cc3ccc(F)cc3)[nH]2)CCn2nccc21 [Example 98, (S)-5-(4-fluorobenzyl)-N-(4-methyl-5-oxo-5,6,7,8-tetrahydro-4H-pyrazolo[1,5-a][1,3]diazepin-6-yl)-4H-1,2,4-triazole-3-carboxamide] | 70.4 |
| CN1C(=O)[C@@H](NC(=O)c2nnc(Cc3cccc(F)c3F)[nH]2)CCn2nccc21 [Example 99, (S)-5-(2,3-difluorobenzyl)-N-(4-methyl-5-oxo-5,6,7,8-tetrahydro-4H-pyrazolo[1,5-a][1,3]diazepin-6-yl)-4H-1,2,4-triazole-3-carboxamide] | 34.6 |
| CC(c1ccccc1)c1nnc(C(=O)N[C@H]2CCn3nccc3N(C)C2=O)[nH]1 (stereo partly drawn) [Example 100, N—((S)-4-methyl-5-oxo-5,6,7,8-tetrahydro-4H-pyrazolo[1,5-a][1,3]diazepin-6-yl)-5-(1-phenylethyl)-4H-1,2,4-triazole-3-carboxamide] | 189 |
| CN1C(=O)[C@@H](NC(=O)c2cc(Oc3ccccc3)ccn2)CCn2nccc21 [Example 101, (S)—N-(4-methyl-5-oxo-5,6,7,8-tetrahydro-4H-pyrazolo[1,5-a][1,3]diazepin-6-yl)-4-phenoxypicolinamide] | 189 |

Continued, values first:

| Ki [nM] | SMILES |
| --- | --- |
| 335 | CN1C(=O)C(NC(=O)c2nnc(Cc3ccccc3)[nH]2)CCCn2cncc21 (stereo not shown) [Example 102, 5-benzyl-N-(1-methyl-2-oxo-1,2,3,4,5,6-hexahydroimidazo[1,5-a][1,3]diazocin-3-yl)-4H-1,2,4-triazole-3-carboxamide] |
| 124 | CN1C(=O)C(NC(=O)c2ncn(Cc3ccccc3)n2)CCCn2cncc21 (stereo not shown) [Example 103, 1-benzyl-N-(1-methyl-2-oxo-1,2,3,4,5,6-hexahydroimidazo[1,5-a][1,3]diazocin-3-yl)-1H-1,2,4-triazole-3-carboxamide] |
| 149 | CN1C(=O)C(NC(=O)c2ncn(Cc3ccccc3)n2)CCCn2nc(C3CC3)cc21 (stereo not shown) [Example 104, 1-benzyl-N-(2-cyclopropyl-4-methyl-5-oxo-4,5,6,7,8,9-hexahydropyrazolo[1,5-a][1,3]diazocin-6-yl)-1H-1,2,4-triazole-3-carboxamide] |
| 262 | CN1C(=O)C(NC(=O)c2nnc(Cc3ccccc3)[nH]2)CCCn2nc(C3CC3)cc21 (stereo not shown) [Example 105, 5-benzyl-N-(2-cyclopropyl-4-methyl-5-oxo-4,5,6,7,8,9-hexahydropyrazolo[1,5-a][1,3]diazocin-6-yl)-4H-1,2,4-triazole-3-carboxamide] |
| 834 | CN1C(=O)[C@@H](NC(=O)c2cc3c(cn2)COC3(C)CC(F)(F)F)CCn2nccc21 (stereo partly drawn) [Example 106, 1-methyl-N—((S)-4-methyl-5-oxo-5,6,7,8-tetrahydro-4H-pyrazolo[1,5-a][1,3]diazepin-6-yl)-1-(2,2,2-trifluoroethyl)-1,3-dihydrofuro[3,4-c]pyridine-6-carboxamide] |
| 69.7 | Cc1cnn2c1N(C)C(=O)C(NC(=O)c1ncn(Cc3ccccc3)n1)CC2 (stereo not shown) [Example 107, 1-benzyl-N-(3,4-dimethyl-5-oxo-5,6,7,8-tetrahydro-4H-pyrazolo[1,5-a][1,3]diazepin-6-yl)-1H-1,2,4-triazole-3-carboxamide] |
| 133 | CN1C(=O)C(NC(=O)c2nnc(Cc3ccccc3)[nH]2)CCn2nc3ccccc3c21 (stereo not shown) [Example 108, 5-benzyl-N-(1-methyl-2-oxo-2,3,4,5-tetrahydro-1-[1,3]diazepino[1,2-b]indazol-3-yl)-4H-1,2,4-triazole-3-carboxamide] |
| 124 | CN1C(=O)C(NC(=O)c2nnc(Cc3ccccc3)[nH]2)CCn2c1nc1ccccc12 (stereo not shown) [Example 109, 5-benzyl-N-(1-methyl-2-oxo-2,3,4,5-tetrahydro-1H-benzo[4,5]imidazo[1,2-a][1,3]diazepin-3-yl)-4H-1,2,4-triazole-3-carboxamide] |
| 65.2 | CN1C(=O)C(NC(=O)c2ncn(Cc3ccccc3)n2)CCn2nc3ccccc3c21 (stereo not shown) [Example 110, 1-benzyl-N-(1-methyl-2-oxo-2,3,4,5-tetrahydro-1H-[1,3]diazepino[1,2-b]indazol-3-yl)-1H-1,2,4-triazole-3-carboxamide] |
| 126 | CN1C(=O)C(NC(=O)c2ncn(Cc3ccccc3)n2)CCn2c1nc1ccccc12 (stereo not shown) [Example 111, 1-benzyl-N-(1-methyl-2-oxo-2,3,4,5-tetrahydro-1H-benzo[4,5]imidazo[1,2-a][1,3]diazepin-3-yl)-1H-1,2,4-triazole-3-carboxamide] |

same assay, conditions: read-out: RIP1 Ki

| SMILES | Ki [nM] |
| --- | --- |
| CN1C(=O)[C@@H](NC(=O)c2nnc3ccc(C(F)(F)C(F)(F)F)nn23)COc2ccccc21 [Example 114, (S)—N-(5-methyl-4-oxo-2,3,4,5-tetrahydrobenzo[b][1,4]oxazepin-3-yl)-6-(perfluoroethyl)-[1,2,4]triazolo[4,3-b]pyridazine-3-carboxamide] | 68.3 |
